The values that follow come from US8415379B2, “Pyridines” (Hoffmann-La Roche Inc., priority 2009, dated 2013).

Molecules are shown by their SMILES.

The target in the test is T1, GABA A α5 (human receptors of composition α5β3γ2) (Homo sapiens, UniProt P18507+P31644).
T1 construct: expressed in transfected cells; host or cells: HEK293 cells, transiently transfected; membrane homogenates used
The experiment in a line: [3H]flumazenil competition binding assay, human GABA A α5β3γ2 receptors in HEK293 cells. Particulars: displacement of 0.5 nM [3H]flumazenil, HEK293 membranes, 1 hour at 4° C., means of two determinations, read-out: hKi GABA A α5. The procedure: The affinity of compounds at GABA A receptor subtypes was measured by competition for [^3H]flumazenil (85 Ci/mmol; Roche) binding to HEK293 cells expressing rat (stably transfected) or human (transiently transfected) receptors of composition α1β3γ2, α2β3γ2, α3β3γ2 and α5β3γ2.
Cell pellets were suspended in Krebs-tris buffer (4.8 mM KCl, 1.2 mM CaCl2, 1.2 mM MgCl2, 120 mM NaCl, 15 mM Tris; pH 7.5; binding assay buffer), homogenized by polytron for ca. 20 sec on ice and centrifuged for 60 min at 4° C. (50000 g; Sorvall, rotor: SM24=20000 rpm). The cell pellets were re-suspended in Krebs-tris buffer and homogenized by polytron for ca. 15 sec on ice. Protein was measured (Bradford method, Bio-Rad) and aliquots of 1 mL were prepared and stored at −80° C.
Radioligand binding assays were carried out in a volume of […] (96-well plates) which contained […] of cell membranes, [^3H]flumazenil at a concentration of 1 nM for α1, α2 and α3 subunits and 0.5 nM for α5 subunits and the test compound in the range of […]. Nonspecific binding was defined by 10^−5 M diazepam and typically represented less than 5% of the total binding. Assays were incubated to equilibrium for 1 hour at 4° C. and harvested onto GF/C uni-filters (Packard) by filtration using a Packard harvester and washing with ice-cold wash buffer (50 mM Tris; pH 7.5). After drying, filter-retained radioactivity was detected by liquid scintillation counting. Ki values were calculated using Excel-Fit (Microsoft) and are the means of two determinations.
`Cc1onc(-c2ccccc2)c1COc1ccc(C(=O)NC2CCOC2)nc1` (racemic) [Example 3, Rac-5-(5-Methyl-3-phenyl-isoxazol-4-ylmethoxy)-pyridine-2-carboxylic acid (tetrahydro-furan-3-yl)-amide]: the Ki amounted to 13.9 nM.

For `CCC(CO)NC(=O)c1ccc(OCc2c(-c3ccccn3)noc2C)cn1` (racemic) [Example 20, Rac-5-(5-Methyl-3-pyridin-2-yl-isoxazol-4-ylmethoxy)-pyridine-2-carboxylic acid (1-hydroxymethyl-propyl)-amide], the Ki came out at 8.1 nM.

Turning to `Cc1onc(-c2ccccc2)c1COc1ccc(C(=O)NCCO)nc1` [Example 1, 5-(5-Methyl-3-phenyl-isoxazol-4-ylmethoxy)-pyridine-2-carboxylic acid (2-hydroxy-ethyl)-amide], the Ki was found to be 15.4 nM.

On to `Cc1onc(-c2ccccc2)c1COc1ccc(C(=O)NC(C)C)nc1` [Example 2, 5-(5-Methyl-3-phenyl-isoxazol-4-ylmethoxy)-pyridine-2-carboxylic acid isopropylamide], for which the Ki was determined as 8.9 nM.

For `Cc1onc(-c2ccccc2)c1COc1ccc(C(=O)NN(C)C)nc1` [Example 4, 5-(5-Methyl-3-phenyl-isoxazol-4-ylmethoxy)-pyridine-2-carboxylic acid N′,N′-dimethyl-hydrazide], the Ki was determined as 26.5 nM.

Consider `Cc1onc(-c2ccccc2)c1COc1ccc(C(=O)NN2CCOCC2)nc1` [Example 5, 5-(5-Methyl-3-phenyl-isoxazol-4-ylmethoxy)-pyridine-2-carboxylic acid morpholin-4-ylamide], for which the Ki came out at 17 nM.

With `Cc1onc(-c2ccccn2)c1COc1ccc(C(=O)NC2CCOCC2)nc1` [Example 6, 5-(5-Methyl-3-pyridin-2-yl-isoxazol-4-ylmethoxy)-pyridine-2-carboxylic acid (tetrahydro-pyran-4-yl)-amide], the Ki was 4.8 nM.

For the compound `Cc1onc(-c2ccccn2)c1COc1ccc(C(=O)NC(C)C)nc1` [Example 7, 5-(5-Methyl-3-pyridin-2-yl-isoxazol-4-ylmethoxy)-pyridine-2-carboxylic acid isopropyl-amide], the Ki stood at 3.2 nM.

For `Cc1onc(-c2ccccn2)c1COc1ccc(C(=O)NC(C)(C)CO)nc1` [Example 8, 5-(5-Methyl-3-pyridin-2-yl-isoxazol-4-ylmethoxy)-pyridine-2-carboxylic acid (2-hydroxy-1,1-dimethyl-ethyl)-amide], the Ki was 22.3 nM.

In the case of `Cc1onc(-c2ccccn2)c1COc1ccc(C(=O)NN2CCOCC2)nc1` [Example 9, 5-(5-Methyl-3-pyridin-2-yl-isoxazol-4-ylmethoxy)-pyridine-2-carboxylic acid morpholin-4-ylamide], the Ki amounted to 4.4 nM.

On to `Cc1onc(-c2ccccn2)c1COc1ccc(C(=O)N2CCS(=O)(=O)CC2)nc1` [Example 10, (1,1-Dioxo-1,6-thiomorpholin-4-yl)-[5-(5-methyl-3-pyridin-2-yl-isoxazol-4-ylmethoxy)-pyridin-2-yl]-methanone], for which the Ki was found to be 34.2 nM.

On to `Cc1onc(-c2ccccn2)c1COc1ccc(C(=O)NC2CC2)nc1` [Example 11, 5-(5-Methyl-3-pyridin-2-yl-isoxazol-4-ylmethoxy)-pyridine-2-carboxylic acid cyclopropyl amide], for which the Ki turned out to be 3.5 nM.

Turning to `Cc1onc(-c2ccccn2)c1COc1ccc(C(=O)NCC2CC2)nc1` [Example 12, 5-(5-Methyl-3-pyridin-2-yl-isoxazol-4-ylmethoxy)-pyridine-2-carboxylic acid cyclopropyl-methyl-amide], the Ki was 7.1 nM.

In the case of `Cc1onc(-c2ccccn2)c1COc1ccc(C(=O)NCC(F)(F)F)nc1` [Example 13, 5-(5-Methyl-3-pyridin-2-yl-isoxazol-4-ylmethoxy)-pyridine-2-carboxylic acid (2,2,2-trifluoro-ethyl)-amide], the Ki turned out to be 4.6 nM.

As for `Cc1onc(-c2ccccn2)c1COc1ccc(C(=O)NCCO)nc1` [Example 14, 5-(5-Methyl-3-pyridin-2-yl-isoxazol-4-ylmethoxy)-pyridine-2-carboxylic acid (2-hydroxy-ethyl)-amide], the Ki came to 7.8 nM.

Turning to `CCNC(=O)c1ccc(OCc2c(-c3ccccn3)noc2C)cn1` [Example 15, 5-(5-Methyl-3-pyridin-2-yl-isoxazol-4-ylmethoxy)-pyridine-2-carboxylic acid ethylamide], the Ki came to 5.8 nM.

As for `CNC(=O)c1ccc(OCc2c(-c3ccccn3)noc2C)cn1` [Example 16, 5-(5-Methyl-3-pyridin-2-yl-isoxazol-4-ylmethoxy)-pyridine-2-carboxylic acid methylamide], the Ki came to 7.1 nM.

Consider `Cc1onc(-c2ccccn2)c1COc1ccc(C(=O)N2CCSCC2)nc1` [Example 17, [5-(5-Methyl-3-pyridin-2-yl-isoxazol-4-ylmethoxy)-pyridin-2-yl]-thiomorpholin-4-yl-methanone], for which the Ki was determined as 32.9 nM.

As to `Cc1onc(-c2ccccn2)c1COc1ccc(C(=O)N[C@H]2CCC[C@@H]2O)nc1` [Example 18, 5-(5-Methyl-3-pyridin-2-yl-isoxazol-4-ylmethoxy)-pyridine-2-carboxylic acid ((1S,2S)-2-hydroxy-cyclopentyl)-amide], the Ki was 5.6 nM.

In the case of `Cc1onc(-c2ccccn2)c1COc1ccc(C(=O)Nc2cnn(C)c2)nc1` [Example 19, 5-(5-Methyl-3-pyridin-2-yl-isoxazol-4-ylmethoxy)-pyridine-2-carboxylic acid (1-methyl-1H-pyrazol-4-yl)-amide], the Ki is 1.7 nM.

For `CC[C@@H](CO)NC(=O)c1ccc(OCc2c(-c3ccccn3)noc2C)cn1` [Example 21, 5-(5-Methyl-3-pyridin-2-yl-isoxazol-4-ylmethoxy)-pyridine-2-carboxylic acid ((S)-1-hydroxymethyl-propyl)-amide], the Ki stood at 4.3 nM.

In the case of `Cc1onc(-c2ccccn2)c1COc1ccc(C(=O)N[C@@H](C)C(F)(F)F)nc1` [Example 22, 5-(5-Methyl-3-pyridin-2-yl-isoxazol-4-ylmethoxy)-pyridine-2-carboxylic acid ((S)-2,2,2-trifluoro-1-methyl-ethyl)-amide], the Ki came out at 5.6 nM.

Consider `Cc1onc(-c2ccc(F)cn2)c1COc1ccc(C(=O)NC(C)C)nc1` [Example 23, 5-[3-(5-Fluoro-pyridin-2-yl)-5-methyl-isoxazol-4-ylmethoxy]-pyridine-2-carboxylic acid isopropylamide], for which the Ki was found to be 3.3 nM.

`Cc1onc(-c2ccc(F)cn2)c1COc1ccc(C(=O)NC(C)(C)CO)nc1` [Example 24, 5-[3-(5-Fluoro-pyridin-2-yl)-5-methyl-isoxazol-4-ylmethoxy]-pyridine-2-carboxylic acid (2-hydroxy-1,1-dimethyl-ethyl)-amide]: the Ki was determined as 17.5 nM.

In the case of `Cc1onc(-c2ccc(F)cn2)c1COc1ccc(C(=O)NN2CCOCC2)nc1` [Example 25, 5-[3-(5-Fluoro-pyridin-2-yl)-5-methyl-isoxazol-4-ylmethoxy]-pyridine-2-carboxylic acid morpholin-4-ylamide], the Ki was determined as 3.9 nM.

Turning to `Cc1onc(-c2ccc(F)cn2)c1COc1ccc(C(=O)N2CCS(=O)(=O)CC2)nc1` [Example 26, (1,1-Dioxo-1,6-thiomorpholin-4-yl)-{5-[3-(5-fluoro-pyridin-2-yl)-5-methyl-isoxazol-4-ylmethoxy]-pyridin-2-yl}-methanone], the Ki is 36.9 nM.

With `Cc1onc(-c2ccc(F)cn2)c1COc1ccc(C(=O)NC2CC2)nc1` [Example 27, 5-[3-(5-Fluoro-pyridin-2-yl)-5-methyl-isoxazol-4-ylmethoxy]-pyridine-2-carboxylic acid cyclopropylamide], the Ki was found to be 2.6 nM.

For `Cc1onc(-c2ccc(F)cn2)c1COc1ccc(C(=O)NCC(F)(F)F)nc1` [Example 28, 5-[3-(5-Fluoro-pyridin-2-yl)-5-methyl-isoxazol-4-ylmethoxy]-pyridine-2-carboxylic acid (2,2,2-trifluoro-ethyl)-amide], the Ki is 4.2 nM.

As for `CC(C)NC(=O)c1ccc(OCc2c(-c3ccc(F)cc3)noc2CO)cn1` [Example 29, 5-[3-(4-Fluoro-phenyl)-5-hydroxymethyl-isoxazol-4-ylmethoxy]-pyridine-2-carboxylic acid isopropylamide], the Ki is 70.2 nM.

Take `O=C(NC1CCOCC1)c1ccc(OCc2c(-c3ccc(F)cc3)noc2CO)cn1` [Example 30, 5-[3-(4-Fluoro-phenyl)-5-hydroxymethyl-isoxazol-4-ylmethoxy]-pyridine-2-carboxylic acid (tetrahydro-pyran-4-yl)-amide]: the Ki amounted to 30.3 nM.

For `O=C(NC1CC1)c1ccc(OCc2c(-c3ccc(F)cc3)noc2CO)cn1` [Example 31, 5-[3-(4-Fluoro-phenyl)-5-hydroxymethyl-isoxazol-4-ylmethoxy]-pyridine-2-carboxylic acid cyclopropylamide], the Ki worked out at 23.3 nM.
